In patent US20170032106A1, “System and Method for Analyzing Adverse Event Data” (Astellas Pharma Europe Ltd., priority 2015, published 2017):
Read-outs that look alike come from different tables or passages of the source.

Tests used:
[1] = design: species or system patients; details: human, in vivo; for burden estimate from dry mouth / overall burden estimate: 85 days
From the text: The systems and methods of the present invention are now described with reference to specific examples of clinical trials and the adverse event data generated in connection therewith, and stored in a database. […] 2015]. DOI: 10.1177/1756287215589250) with a β3 adrenergic receptor agonist and an anti-muscarinic agent. General names for each drug treatment are used herein.
First described is the data analysis involved with implementation of the invention. More particularly, the application of the methodology involves the use of a clinical study database with individual data entries for TEAEs per patient per day. The presence of TEAEs may be plotted against the study day, such that if a patient reported a TEAE from Days 3 to 5, this TEAE was considered present on Days 3, 4 and 5. Also, if an end date was not present in the database, or a TEAE was ongoing, the last study day of the patient was taken as the end day of the TEAE. […] The addition of coloring that corresponds with TEAE severity allows easy discrimination of TEAEs of differing severity in the graph.
In order to visually represent the safety/TEAE burden experienced by a patient, varied weighting may be applied to TEAE severity in each arm in a consistent manner. The graph may, therefore, display the number of weighted TEAEs per day. For purposes of example, in the graphs described herein, TEAEs that were mild, moderate, severe, life threatening/disabling and related to death were weighted to represent 1×, 2×, 3×, 4× and 5×TEAEs per event per day, respectively. Further, the investigator may indicate the seriousness of the TEAE.
An area under the curve (AUC) analysis can be performed in conjunction with the burden of therapy methodology to quantitatively compare potential differences in mean events per day between study arms. This can be performed in conjunction with weighting of events if required. An AUC analysis may be useful in studies that have a similar presence of events in each arm, as an estimate of the mean weighted events per day for each arm can be compared using statistical tools.
The AUC for each individual subject can also be calculated. The AUC represents the total burden that an individual subject experienced during the trial. The AUC is the sum of the burden, for all burdens of an individual subject. Thus, the AUC of subject i is burdeni=Σj=1^t^i burdenij, where ti is the total number of study days of subject i.
The AUC can be used in an analysis of covariance (ANCOVA) as a response variable and the impact of different covariates and factors on the AUC can be investigated. The obvious factor is treatment, but one can include medication history, age, gender or BMI as […] in the ANCOVA analysis.
To analyze the profiles with an ANCOVA, the AUC for dry mouth of each subject was derived. The AUC was then used as the dependent variable in the model. […] It is likely that a negative past experience with anti-muscarinics could influence the recording of a specific adverse event like dry-mouth. In the statistical (ANCOVA) model, prior anti-muscarinics dissatisfaction was added next to treatment as explanatory variable. […] Prior anti-muscarinic dissatisfaction had also a low p-value (p=0.007), meaning that subjects with a negative experience using anti muscarinics also reported more dry mouths. In this study, dry mouth was reported by 29 patients (3.1%) in the adrenergic agonist group and 54 patients (5.8%) in the antimuscarinic group (Batista et al., 2015). An analysis of patients who reported dry mouth was performed to investigate whether there was a difference between arms and approximately 1.5-2.0% of patients reported dry mouth in the antimuscarinic group from Days 17-85 (FIGS. 3B and 4B).

[2] = cited from earlier work
[3] = overactive bladder study, whole study

Row | burden estimate from dry mouth [1] | overall burden estimate [1] | patients reporting dry mouth per day [1] | Compound | number of patients reporting dry mouth ([2]; human, in vivo) [patients] | patients reporting dry mouth (%) ([2]; human, in vivo) | patients with TEAEs (%) [2, 3] [%] | total number of patients with TEAEs [2, 3] | difference in the proportion of patients with TEAEs ([1]; 10 day) [%] | difference in the proportion of patients with TEAEs ([1]; 85 day) [%]
1 | 2.9 | 15.1 | – | Nc1nc(CC(=O)Nc2ccc(CCNC[C@H](O)c3ccccc3)cc2)cs1 [β3 adrenergic receptor agonist, mirabegron] | 29 | 3.1 | 29.3 | 274 | – | –
2 | 5.7 | 19.6 | 1.5-2.0% | O=C(O[C@H]1CN2CCC1CC2)N1CCc2ccccc2[C@@H]1c1ccccc1 [antimuscarinic agent, solifenacin] | – | – | – | – | 0.1 | 5
